Laboratory results published in publication PMC6420499 (Scientific Reports, 2019).
Blank lines part the entries; values can stand above or below the molecule they belong to.

What was measured:
[1] = Metabolite identification, atRA in representative human fetal liver S9 fractions; format: in vitro ADME; conditions: 5 µM atRA, 0.3 mg S9 protein in 1 mL, 10 min, two representative livers
Procedure: (§1) The incubations were quenched with ethyl acetate, metabolites extracted as previously described[15] and the product formation was then measured by LC-MS/MS as described below. For fetal liver S9 incubations two representative livers were chosen based on the mRNA expression levels of CYP3A7 and CYP26A1. […] After a pre-incubation of 5 min the reactions were initiated with the addition of NADPH (1 mM final concentration) and allowed to proceed for 10 min.
(§2) In brief, analytes were separated using a gradient elution as follows: starting from 10:90 acetonitrile: aqueous to 1:1 acetonitrile: aqueous over 0.5 min then increased to 85:15 acetonitrile: aqueous over 4 min and then after a 0.1 min hold increased to 95:5 acetonitrile: aqueous held for 2.5 min. The aqueous phase contained 0.1 % formic acid throughout. […] Retinoid concentrations were quantified using Analyst software and peak height ratios between the analyte and the internal standard (4-oxo-RA-d3).

recombinant CYP26A1 [2] = target: T1, recombinant CYP26A1 (Homo sapiens, UniProt O43174); assay: Metabolite identification, atRA with recombinant CYP26A1; format: in vitro ADME; conditions: 5 µM atRA, 5 pmol CYP26A1, 2 min
T1 construct: made in house; host or cells: baculovirus infected insect cells (membrane fractions)
T1 sequence (O43174 1-497): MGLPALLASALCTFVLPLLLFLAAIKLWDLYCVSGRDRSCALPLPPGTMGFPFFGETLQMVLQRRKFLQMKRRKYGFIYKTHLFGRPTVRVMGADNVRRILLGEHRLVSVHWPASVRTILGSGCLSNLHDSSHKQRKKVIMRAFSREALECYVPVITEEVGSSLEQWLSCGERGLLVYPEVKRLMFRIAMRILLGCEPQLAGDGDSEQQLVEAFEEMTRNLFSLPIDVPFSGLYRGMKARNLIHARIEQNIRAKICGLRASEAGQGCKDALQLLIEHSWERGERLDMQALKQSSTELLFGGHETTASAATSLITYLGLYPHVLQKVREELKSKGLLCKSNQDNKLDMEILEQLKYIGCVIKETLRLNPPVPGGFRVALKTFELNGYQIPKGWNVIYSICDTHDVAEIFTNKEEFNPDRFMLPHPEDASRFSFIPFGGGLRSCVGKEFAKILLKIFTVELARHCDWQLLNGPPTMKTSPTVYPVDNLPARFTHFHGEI
Procedure: as §1, §2

[3] = parameters: method as in PMID 20513361; conditions: value used for scaling; cited from earlier work
[4] = In vitro to in vivo scaling of atRA metabolism, fetal liver extraction ratio (well-stirred model); format: in vitro ADME, human; conditions: at any gestational age
recombinant CYP26B1 = target: T2, recombinant CYP26B1 (Homo sapiens, UniProt Q9NR63); assay: Metabolite identification, atRA with recombinant CYP26B1; format: in vitro ADME; conditions: 5 µM atRA, 5 pmol CYP26B1, 10 min
T2 construct: made in house; host or cells: baculovirus infected insect cells (membrane fractions)
T2 sequence (Q9NR63 1-512): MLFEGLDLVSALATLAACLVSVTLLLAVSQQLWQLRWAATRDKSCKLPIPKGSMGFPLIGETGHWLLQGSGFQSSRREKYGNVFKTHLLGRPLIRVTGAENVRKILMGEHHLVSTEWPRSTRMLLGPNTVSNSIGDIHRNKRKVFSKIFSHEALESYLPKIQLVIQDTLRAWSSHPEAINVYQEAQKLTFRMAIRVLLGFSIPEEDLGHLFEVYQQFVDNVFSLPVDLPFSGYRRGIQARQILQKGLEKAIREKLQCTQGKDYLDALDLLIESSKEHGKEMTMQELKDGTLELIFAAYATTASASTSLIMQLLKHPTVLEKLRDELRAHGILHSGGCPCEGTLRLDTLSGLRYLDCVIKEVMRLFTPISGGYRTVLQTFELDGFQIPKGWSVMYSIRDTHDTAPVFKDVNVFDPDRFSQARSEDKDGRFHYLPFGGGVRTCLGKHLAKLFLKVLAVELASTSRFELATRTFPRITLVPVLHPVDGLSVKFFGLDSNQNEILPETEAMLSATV
Description: (§3) The aqueous phase contained 0.1 % formic acid throughout.

[5] = atRA metabolite formation in human placental S9 preparations; format: in vitro ADME; conditions: preliminary studies, data not shown
CYP26 = test system: CYP26; parameters: method as in PMID 21521770; conditions: cited from earlier work
[6] = test system: CYP3A7 (atRA metabolite formation in fetal liver S9); assay: Inhibition of atRA metabolite formation in human fetal liver S9 fractions by CYP selective inhibitors; format: in vitro ADME; conditions: human, human fetal liver S9 fractions, probe atRA (all-trans retinoic acid), 500 nM
Procedure: (§4) Talarozole was chosen as the CYP26 inhibitor based on previous characterization of its potency towards CYP26A1 and CYP26B1[34]. Ketoconazole was included in the analysis as it is a well characterized pan-CYP inhibitor with high potency both towards CYP3A7 and CYP26s[16],[34]. […] All of the samples were extracted and analyzed by HPLC-MS/MS. […] Incubations were performed as described above for fetal livers and analyzed for metabolite formation by HPLC-MS/MS. The percent inhibition was calculated by comparing the metabolite formation velocity in the presence of the inhibitor to vehicle control.
as §3

recombinant CYP3A7 = target: T3, recombinant CYP3A7 (Homo sapiens, UniProt P24462); assay: Inhibition of recombinant CYP3A7 mediated 4-OH-RA formation; format: biochemical; conditions: CYP3A7 5 pmol/mL, 10 min
T3 construct: purchased BD Gentest
Procedure: as §4, §3

CYP3A7 = test system: CYP3A7; parameters: method as in PMID 21521770; conditions: cited from earlier work
[7] = test system: atRA metabolite formation in human fetal liver S9 fractions; assay: Inhibition of atRA metabolite formation in human fetal liver S9 fractions by CYP selective inhibitors; format: in vitro ADME; conditions: ketoconazole 10 µM, atRA 500 nM, S9 fractions from four representative donors, vs vehicle control
Procedure: as §4, §3

recombinant CYP26A1 [8] = target: T1, recombinant CYP26A1; assay: Inhibition of recombinant CYP26A1 mediated 4-OH-RA formation; format: biochemical; conditions: talarozole 200 nM, atRA 500 nM, CYP26A1 2 pmol/mL, 2 min
Procedure: as §4, §3

[9] = test system: CYP26 (atRA metabolite formation in fetal liver S9); assay: Inhibition of atRA metabolite formation in human fetal liver S9 fractions by CYP selective inhibitors; format: in vitro ADME; conditions: human, human fetal liver S9 fractions, probe atRA (all-trans retinoic acid), 500 nM
Procedure: as §4, §3

T3 sequence (P24462 whole entry): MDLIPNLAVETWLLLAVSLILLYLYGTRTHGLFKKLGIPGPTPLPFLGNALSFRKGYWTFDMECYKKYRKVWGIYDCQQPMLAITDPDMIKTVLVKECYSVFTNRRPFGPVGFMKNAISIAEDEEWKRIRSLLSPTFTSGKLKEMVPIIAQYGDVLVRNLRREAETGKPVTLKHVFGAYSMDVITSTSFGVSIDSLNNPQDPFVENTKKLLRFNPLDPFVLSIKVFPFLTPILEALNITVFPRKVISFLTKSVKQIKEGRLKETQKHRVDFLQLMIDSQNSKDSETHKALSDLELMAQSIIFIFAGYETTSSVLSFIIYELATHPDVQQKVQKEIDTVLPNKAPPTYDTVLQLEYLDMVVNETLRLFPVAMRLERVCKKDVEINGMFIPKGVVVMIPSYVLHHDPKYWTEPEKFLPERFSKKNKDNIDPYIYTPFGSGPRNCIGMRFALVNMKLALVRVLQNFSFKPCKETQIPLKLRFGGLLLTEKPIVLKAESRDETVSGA

atRA metabolites formed (recombinant CYP26A1 [2]): hydroxylated atRA at multiple sites
maternal atRA that could be extracted by fetal liver [4]: ≤ 5%
atRA metabolites formed (recombinant CYP26B1): hydroxylated atRA at multiple sites
SMILES: CC1=C(/C=C/C(C)=C/C=C/C(C)=C/C(=O)O)C(C)(C)CCC1 [atRA, All-trans-retinoic acid]
atRA metabolites observed [1]: only the formation of 4-OH-RA and its metabolite 4-oxo-RA was observed
plasma unbound fraction (fu) [3]: 0.01
formation of atRA metabolites [5]: did not observe any formation of atRA metabolites

inhibition at 200 µM [6]: 30 to 60%
inhibition of CYP3A7 mediated 4-OH-atRA formation (recombinant CYP3A7; fluconazole 300 μM, atRA 10 µM): confirmed
SMILES: OC(Cn1cncn1)(Cn1cncn1)c1ccc(F)cc1F [fluconazole]
inhibition of CYP26 (CYP26): not to inhibit

SMILES: CC(=O)N1CCN(c2ccc(OCC3COC(Cn4ccnc4)(c4ccc(Cl)cc4Cl)O3)cc2)CC1 (stereo not drawn) [ketoconazole]
inhibition of CYP3A7 (CYP3A7): inhibits
inhibition of CYP26 (CYP26): inhibits
decrease in atRA metabolite formation [7]: > 95%

inhibition of CYP26A1 (recombinant CYP26A1 [8]): reproduced
inhibition at 200 nM [9]: 30 to 40%
inhibition of CYP3A7 mediated 4-OH-RA formation (recombinant CYP3A7; talarozole 200 nM, atRA 500 nM): did not significantly inhibit
SMILES: CCC(CC)C(c1ccc(Nc2nc3ccccc3s2)cc1)n1cncn1 (stereo not drawn) [talarozole]
